Source: patent publication US20220267313A1, “DIHYDROPYRIMIDINE DERIVATIVES AND USES THEREOF IN THE TREATMENT OF HBV INFECTION OR OF HBV-INDUCED DISEASES” (Janssen Sciences Ireland Unlimited Company, priority 2019, published 2022)

Legend:
[1] = Cytotoxicity determination by CCK-8 assay, HepG2.2.15 cells; type: cell-based; settings: human, 6 days treatment
Procedure: (§1) HepG2.2.15 (the HepG2.2.15 cell line can be produced by transfection of the HepG2 cell line as described in Sells, Chen, and Acs 1987 (Proc. Natl. Acad. Sci. USA 84: 1005-1009), and the HepG2 cell line is available from ATCC® under number HB-8065™)
(§2) HepG2.2.15 cells were plated into 96-well plate in 2% FBS culture medium at the density of 40,000 cells/well and 5,000 cells/well for HBV inhibitory activity and cytotoxicity determination, respectively. After incubation at 37° C., 5% CO2 overnight, cells were treated with medium containing compounds for 6 days with medium and compounds refreshed after 3 days of treatment. Each compound was tested in a 1:3 serial dilutions at 8 different concentrations in triplicate. The highest concentration of the compounds was 10 uM or 1 uM for anti-HBV activity assay and 100 uM for cytotoxicity determination.
Cell viability was determined by CCK-8 assay. After 6 days of compounds treatment, 20 μl CCK-8 reagents were added to each well of cytotoxicity assay plates. Cell plates were incubated at 37° C., 5% CO2 for 2.5 h. The absorbance at 450 nm wavelength and the absorbance at 630 nm wavelength as reference was measured.
(§3) EC50 and CC50 values are calculated by the GRAPHPAD PRISM software.

HBV = experiment: Anti-HBV activity: HBV DNA in culture medium by qPCR, HepG2.2.15 cells; type: cell-based; settings: Hepatitis B virus, 144 h, 6 days treatment
Procedure: as §1, §2
The change of HBV DNA level induced by the compounds was assessed by quantitative real-time polymerase chain reaction (qPCR). Briefly, the HBV DNA in the culture medium was extracted using QIAamp 96 DNA Blood Kit according to the manual and then quantified by real-time PCR assay using the primers and probe in the table 1 below.
as §3

| SMILES | CC50 at 6 days [1] [nM] | EC50 (HBV) [nM] |
| --- | --- | --- |
| CCOC(=O)C1=C(C23C4C5C2C2C3C4C52C(=O)O)NC(c2nccs2)=N[C@@H]1c1ccc(F)c(F)c1Cl (stereo in doubt) [Ib-7, (2S,3S,5S,6S,7S,8S)-4-((S*)-6-(2-chloro-3,4-difluorophenyl)-5-(ethoxycarbonyl)-2-(thiazol-2-yl)-3,6-dihydropyrimidin-4-yl)cubane-1-carboxylic Acid] | 5 | 25000 |
| COC(=O)C1=C(C23C4C5C2C2C3C4C52C(=O)O)NC(c2nccs2)=N[C@@H]1c1ccc(F)c(F)c1Br (stereo in doubt) [Ib-13, (2S,3S,5S,6S,7S,8S)-4-((S*)-6-(2-bromo-3,4-difluorophenyl)-5-(methoxycarbonyl)-2-(thiazol-2-yl)-3,6-dihydropyrimidin-4-yl)cubane-1-carboxylic Acid] | 27 | > 25000 |
| CCOC(=O)C1=C(C23C4C5C2C2C3C4C52C(=O)O)NC(c2nccs2)=N[C@@H]1c1ccc(F)c(F)c1Br (stereo in doubt) [Ib-14, (2S,3S,5S,6S,7S,8S)-4-((S*)-6-(2-bromo-3,4-difluorophenyl)-5-(ethoxycarbonyl)-2-(thiazol-2-yl)-3,6-dihydropyrimidin-4-yl)cubane-1-carboxylic Acid] | 7 | 41000 |
| CCOC(=O)C1=C(C23C4C5C2C2C3C4C52C(=O)O)NC(c2nccs2)=N[C@@H]1c1cccc(F)c1Cl (stereo in doubt) [Ib-15, (2S,3S,5S,6S,7S,8S)-4-((S*)-6-(2-chloro-3-fluorophenyl)-5-(ethoxycarbonyl)-2-(thiazol-2-yl)-3,6-dihydropyrimidin-4-yl)cubane-1-carboxylic Acid] | 19 | > 50000 |
| COC(=O)C1=C(C23C4C5C2C2C3C4C52C(=O)O)NC(c2nccs2)=N[C@@H]1c1ccc(F)cc1Br (stereo in doubt) [Ib-16, (2S,3S,5S,6S,7S,8S)-4-((S*)-6-(2-bromo-4-fluorophenyl)-5-(methoxycarbonyl)-2-(thiazol-2-yl)-3,6-dihydropyrimidin-4-yl)cubane-1-carboxylic Acid] | 71 | > 50000 |
| COC(=O)C1=C(C23C4C5C2C2C3C4C52C(=O)O)NC(c2nccs2)=N[C@@H]1c1cccc(F)c1Br (stereo in doubt) [Ib-17, (2S,3S,5S,6S,7S,8S)-4-((S*)-6-(2-bromo-3-fluorophenyl)-5-(methoxycarbonyl)-2-(thiazol-2-yl)-3,6-dihydropyrimidin-4-yl)cubane-1-carboxylic Acid] | 125 | 25000 |
| COC(=O)C1=C(C23C4C5C2C2C3C4C52C(=O)O)NC(c2nccs2)=N[C@@H]1c1ccc(F)c(F)c1F (stereo in doubt) [Ib-22, (S*)-4-((2,3,4-trifluorophenyl)-6-(methoxycarbonyl)-2-(thiazolel-4-yl))-1,4-dihydropyrimidin-4-yl)cubane-5-carboxylic Acid] | 282 | > 25000 |
| CCOC(=O)C1=C(C23C4C5C2C2C3C4C52C(=O)O)NC(c2nccs2)=N[C@H]1c1ccc(F)cc1 (stereo in doubt) [Ib-24, (2S,3S,5S,6S,7S,8S)-4-((S*)-5-(ethoxycarbonyl)-6-(4-fluorophenyl)-2-(thiazol-2-yl)-3,6-dihydropyrimidin-4-yl)cubane-1-carboxylic Acid] | 223 | > 25000 |
| CCOC(=O)C1=C(C23C4C5C2C2C3C4C52C(=O)O)NC(c2nccs2)=N[C@@H]1c1ccccc1Cl (stereo in doubt) [Ib-25, (2S,3S,5S,6S,7S,8S)-4-((S*)-6-(2-chlorophenyl)-5-(ethoxycarbonyl)-2-(thiazol-2-yl)-3,6-dihydropyrimidin-4-yl)cubane-1-carboxylic Acid] | 65 | > 50000 |
